Measured values taken from patent US20210127671A1, “HYPERSENSITIVE RESPONSE ELICITOR PEPTIDES AND USE THEREOF” (priority 2015, published 2021).
Read-outs that look alike come from different tables or passages of the source. Peptide text beside a SMILES is read from it.

How the values were obtained:
[1] = Stability against chemical degradation in water or pH buffers at 50° C. (HPLC); conditions: for precipitation during stability test: 0.2% AI, 0.25% Proxel GXL, 50 mM buffers, 50° C.; for solution stability (in words): aqueous solution
Protocol: Briefly, the stability and resistance to chemical degradation of peptides can be assessed as follows using peptide samples having an initial purity of at least about 80%, at least about 82%, at least about 84%, at least about 86%, at least about 88%, at least about 90%, at least about 92%, at least about 94%, at least about 96%, or at least about 98%. For water stability, the peptide is dissolved directly in de-ionized water. For chemical degradation tests, the peptide is dissolved in an aqueous solution containing 50 mM pH buffer and 0.25% Proxel GXL. Exemplary pH buffers include, without limitation: (i) Citrate pH 5.6; (ii) MES pH 6.2; (iii) MOPS pH 6.5; (iv) imidazole pH 7.0; (v) Citrate pH 7.2; (vi) EDDS, pH 7.3; (vii) EDTA pH 8.0; (viii) sodium phosphate pH 8.0; or (ix) TES pH 8.0. Peptides are first dissolved in the aqueous solution at a concentration of 0.5 mg/ml. […] An initial sample of the peptide is removed, diluted 10× with water, and analyzed by reverse-phase HPLC. Briefly, 20 μl of the sample is injected into the solvent flow of an HPLC instrument and analyzed on a C18 HPLC column (YMC ProPack C18, YMC, Japan, or C18 Stablebond, Agilent Technologies, USA) using either a triethylamine phosphate in water/acetonitrile gradient or a 0.1% TFA in water/0.1% TFA in acetonitrile gradient to separate different peptide species. Eluting peptides are monitored by UV absorbance at 218 nm and quantified based on the area under the peak. The area under the peak for the initial peptide sample is treated as the standard for relative quantification in subsequent runs. At regular intervals (e.g., 1, 3, 7, 10, 14, 17, and 21 days), each peptide sample is surveyed and analyzed by HPLC as described above.
Stability against chemical degradation was assessed in various pH buffers by creating 0.2% AI solutions of pure, chemically synthesized peptide in deionized water, 0.25% weight to volume of Proxel® GXL (biocide), and 50 millimolar (mM) of eight buffers (separately) as follows: MES pH 5.6, MOPS pH 6.5, Citrate pH 7.2, EDDS pH 7.3, EDTA pH 8, Phosphate pH 8, Imidazole pH 8, and TES pH 8.

[2] = 0.2% AI in deionized water, 48 hours at room temperature
[3] = not given; remark: listed apart in the source

| SMILES | precipitation during stability test [1] | solution stability (in words) [1] | solubility [2] | solubility [mg/mL] | also measured |
| --- | --- | --- | --- | --- | --- |
| CC[C@H](C)[C@H](NC(=O)CNC(=O)[C@H](CCC(=O)O)NC(=O)[C@@H](N)CC(N)=O)C(=O)N[C@@H](CO)C(=O)N[C@@H](CCC(=O)O)C(=O)N[C@@H](CCCCN)C(=O)N[C@@H](CCC(=O)O)C(=O)N[C@@H](CC(C)C)C(=O)N[C@@H](CC(=O)O)C(=O)N[C@@H](CCC(=O)O)C(=O)N[C@@H](CC(C)C)C(=O)N[C@@H](CC(C)C)C(=O)N[C@H](C(=O)N[C@@H](CCC(=O)O)C(=O)N[C@@H](CC(C)C)C(=O)N[C@H](C(=O)N[C@@H](CCC(=O)O)C(=O)N[C@@H](C)C(=O)N[C@@H](CC(C)C)C(=O)N[C@@H](CC(C)C)C(=O)N[C@@H](CCC(N)=O)C(=O)N[C@@H](CCC(N)=O)C(=O)O)[C@@H](C)CC)[C@@H](C)O [P1-2E,8E,11E,15E,18E] (H-NEGISEKELDELLTELIEALLQQ-OH; N-terminus and C-terminus assumed) | remained in solution | improved solubility and stability when compared with P1 | soluble | – | – |
| CC[C@H](C)[C@H](NC(=O)CNC(=O)[C@H](CCC(N)=O)NC(=O)[C@@H](N)CC(N)=O)C(=O)N[C@@H](CO)C(=O)N[C@@H](CCC(=O)O)C(=O)N[C@@H](CCCCN)C(=O)N[C@@H](CCC(N)=O)C(=O)N[C@@H](CC(C)C)C(=O)N[C@@H](CC(=O)O)C(=O)N[C@@H](CCC(N)=O)C(=O)N[C@@H](CC(C)C)C(=O)N[C@@H](CC(C)C)C(=O)N[C@H](C(=O)N[C@@H](CCC(N)=O)C(=O)N[C@@H](CC(C)C)C(=O)N[C@H](C(=O)N[C@@H](CCCCN)C(=O)N[C@@H](C)C(=O)N[C@@H](CC(C)C)C(=O)N[C@@H](CC(C)C)C(=O)N[C@@H](CCC(N)=O)C(=O)N[C@@H](CCC(N)=O)C(=O)O)[C@@H](C)CC)[C@@H](C)O [Peptide P1-18K] (H-NQGISEKQLDQLLTQLIKALLQQ-OH; N-terminus and C-terminus assumed) | – | – | – | ≥ 20 | % remaining after 14 days incubation ([1]; 50 mM TES, pH 8.0, 50° C.): 58% |
| CC[C@H](C)[C@H](NC(=O)CNC(=O)[C@H](CCC(N)=O)NC(=O)[C@@H](N)CC(N)=O)C(=O)N[C@@H](CO)C(=O)N[C@@H](CCC(=O)O)C(=O)N[C@@H](CCCCN)C(=O)N[C@@H](CCC(N)=O)C(=O)N[C@@H](CC(C)C)C(=O)N[C@@H](CC(=O)O)C(=O)N[C@@H](CCC(N)=O)C(=O)N[C@@H](CC(C)C)C(=O)N[C@@H](CC(C)C)C(=O)N[C@H](C(=O)N[C@@H](CCC(N)=O)C(=O)N[C@@H](CC(C)C)C(=O)N[C@H](C(=O)N[C@@H](CCSC)C(=O)N[C@@H](C)C(=O)N[C@@H](CC(C)C)C(=O)N[C@@H](CC(C)C)C(=O)N[C@@H](CCC(N)=O)C(=O)N[C@@H](CCC(N)=O)C(=O)O)[C@@H](C)CC)[C@@H](C)O [Peptide P1] (H-NQGISEKQLDQLLTQLIMALLQQ-OH; N-terminus and C-terminus assumed) | Precipitation of P1 was observed after several days | – | largely insoluble in water | < 1 | % of the material remaining after 7 days ([1]; 50 mM EDDS, pH 7.3): 10%; better stability than the mutants after 14 days ([1]; 50 mM MES pH 6.0, 50° C.): 10-30%; % degraded after 1 week of incubation ([1]; 50 mM TES, pH 8.0, 80° C. as printed): more than 90%; stability (in words) ([1]; dissolved in water, FIG. 1): modestly stable; solubility behaviour ([1]; lower pH: deionized water, 50 mM citrate pH 5.6, 50 mM MES pH 6.0): solubility problems; solubility (in words) ([1]; phosphate, pH 8.0): some cloudiness in solution; stability (in words) ([1]; phosphate, pH 8.0): appears to outperform the stability of the mutants |
| CC[C@H](C)[C@H](NC(=O)CNC(=O)[C@H](CCC(N)=O)NC(=O)[C@@H](N)CO)C(=O)N[C@@H](CO)C(=O)N[C@@H](CCC(=O)O)C(=O)N[C@@H](CCCCN)C(=O)N[C@@H](CCC(N)=O)C(=O)N[C@@H](CC(C)C)C(=O)N[C@@H](CC(=O)O)C(=O)N[C@@H](CCC(N)=O)C(=O)N[C@@H](CC(C)C)C(=O)N[C@@H](CC(C)C)C(=O)N[C@@H](CO)C(=O)N[C@@H](CCC(N)=O)C(=O)N[C@@H](CC(C)C)C(=O)N[C@H](C(=O)N[C@@H](CCC(N)=O)C(=O)N[C@@H](C)C(=O)N[C@@H](CC(C)C)C(=O)N[C@@H](CC(C)C)C(=O)N[C@@H](CCC(N)=O)C(=O)N1CCC[C@H]1C(=O)O)[C@@H](C)CC [Peptide P4-14S] (H-SQGISEKQLDQLLSQLIQALLQP-OH; N-terminus and C-terminus assumed) | remained in solution | highly stable peptide | completely soluble | – | – |
| CC[C@H](C)[C@H](NC(=O)CNC(=O)[C@H](CCC(N)=O)NC(=O)[C@@H](N)CO)C(=O)N[C@@H](CO)C(=O)N[C@@H](CCC(=O)O)C(=O)N[C@@H](CCCCN)C(=O)N[C@@H](CCC(N)=O)C(=O)N[C@@H](CC(C)C)C(=O)N[C@@H](CC(=O)O)C(=O)N[C@@H](CCC(N)=O)C(=O)N[C@@H](CC(C)C)C(=O)N[C@@H](CC(C)C)C(=O)N[C@@H](CS)C(=O)N[C@@H](CCC(N)=O)C(=O)N[C@@H](CC(C)C)C(=O)N[C@H](C(=O)N[C@@H](CCC(N)=O)C(=O)N[C@@H](C)C(=O)N[C@@H](CC(C)C)C(=O)N[C@@H](CC(C)C)C(=O)N[C@@H](CCC(N)=O)C(=O)N1CCC[C@H]1C(=O)O)[C@@H](C)CC [Peptide P4] (H-SQGISEKQLDQLLCQLIQALLQP-OH; N-terminus and C-terminus assumed) | remained in solution | very poor stability | completely soluble | ≥ 100 | – |
| CC[C@H](C)[C@H](NC(=O)[C@H](CC(N)=O)NC(=O)[C@H](CO)NC(=O)[C@H](CCC(N)=O)NC(=O)[C@H](CO)NC(=O)[C@H](CC(=O)O)NC(=O)[C@H](CC(N)=O)NC(=O)[C@@H]1CCCN1C(=O)[C@@H](N)CCCCN)C(=O)N[C@@H](C)C(=O)N[C@@H](CCCCN)C(=O)N[C@@H](CC(C)C)C(=O)N[C@H](C(=O)N[C@@H](CO)C(=O)N[C@@H](C)C(=O)N[C@@H](CC(C)C)C(=O)N[C@H](C(=O)N[C@@H](CCSC)C(=O)N[C@@H](CO)C(=O)N[C@@H](CC(C)C)C(=O)N[C@@H](CC(C)C)C(=O)N[C@@H](CCC(N)=O)C(=O)O)[C@@H](C)CC)[C@@H](C)CC [Peptide P15b] (H-KPNDSQSNIAKLISALIMSLLQ-OH; N-terminus and C-terminus assumed) | – | – | – | – | solubility at 0.2% w/v ([3]; 50 mM MES pH 6.0, and MOPS pH 6.5): at least partially soluble; solubility at 0.2% w/v ([3]; 50 mM of each of citrate pH ~5.2, citrate pH 7.0, phosphate pH 7.0, TES pH 8.0, EDTA pH 8.0, EDDS pH 7.0): insoluble; solubility at 0.2% w/v ([3]; water): partially soluble |
| CC[C@H](C)[C@H](N)C(=O)N[C@H](C(=O)N1CCC[C@H]1C(=O)N[C@@H](CC(=O)O)C(=O)NCC(=O)N[C@@H](CCC(N)=O)C(=O)NCC(=O)NCC(=O)NCC(=O)N[C@@H](CCC(N)=O)C(=O)N[C@H](C(=O)NCC(=O)N[C@@H](CC(=O)O)C(=O)N[C@@H](CC(N)=O)C(=O)N1CCC[C@H]1C(=O)N[C@@H](CC(C)C)C(=O)N[C@@H](CC(C)C)C(=O)N[C@@H](CCCCN)C(=O)N[C@@H](C)C(=O)N[C@@H](CC(C)C)C(=O)N[C@@H](CC(C)C)C(=O)N[C@@H](CCCCN)C(=O)N[C@@H](CC(C)C)C(=O)N[C@H](C(=O)N[C@@H](C)C(=O)O)[C@@H](C)CC)[C@@H](C)CC)[C@@H](C)O [Peptide P19-20L] (H-ITPDGQGGGQIGDNPLLKALLKLIA-OH; N-terminus and C-terminus assumed) | – | – | – | – | stability compared with P19 (in words) ([1]; 50 mM citrate pH 7.2 or 50 mM TES, pH 8.0): modest increase in stability |
| CC[C@H](C)[C@H](N)C(=O)N[C@H](C(=O)N1CCC[C@H]1C(=O)N[C@@H](CC(=O)O)C(=O)NCC(=O)N[C@@H](CCC(N)=O)C(=O)NCC(=O)NCC(=O)NCC(=O)N[C@@H](CCC(N)=O)C(=O)N[C@H](C(=O)NCC(=O)N[C@@H](CC(=O)O)C(=O)N[C@@H](CC(N)=O)C(=O)N1CCC[C@H]1C(=O)N[C@@H](CC(C)C)C(=O)N[C@@H](CC(C)C)C(=O)N[C@@H](CCCCN)C(=O)N[C@@H](C)C(=O)N[C@@H](CCSC)C(=O)N[C@@H](CC(C)C)C(=O)N[C@@H](CCCCN)C(=O)N[C@@H](CC(C)C)C(=O)N[C@H](C(=O)N[C@@H](C)C(=O)O)[C@@H](C)CC)[C@@H](C)CC)[C@@H](C)O [Peptide P19] (H-ITPDGQGGGQIGDNPLLKAMLKLIA-OH; N-terminus and C-terminus assumed) | – | – | – | – | remaining at 336 h ([1]; buffer or solvent): 52% |
